Earlier results on one compound are cited in patent US12295935B2, “Method for therapeutic treatment of rosacea” (Sol-Gel Technologies Ltd., priority 2019, dated 2025).

In this data set the test system is rosacea. To be noted: BPO as sole active agent.

As for `O=C(OOC(=O)c1ccccc1)c1ccccc1` [BPO, Benzoyl peroxide], the response of lesions result is given as “unresponsive”.
